Drawing on patent US12473295B2, “Substituted straight chain spiro derivatives” (Janssen Pharmaceutica NV, priority 2019, dated 2025), this text covers IC50 for 12 compounds.

Each structure is given as a SMILES string. Where a name gives a salt, the structure may show the parent alone.

Test [1] has as its target menin/MLL (terbium chelate-labeled menin, FITC-MBM1 peptide) (Homo sapiens (Human), UniProt O00255). As to the kind of experiment: Menin/MLL homogenous time-resolved fluorescence (HTRF) assay.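 Further: IC50 from percent inhibition of HTRF signal, normalized between wells without competitor and wells with a saturating competitor that displaces FITC-MBM1 from His-tagged menin.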 The format is binding. The following applies: HTRF-30 min incubation IC50, 30 min incubation. (Time-resolved FRET reads energy transfer from a long-lived donor to a nearby acceptor.)

In another test the test system is MOLM14 cells. As to the kind of experiment: Proliferation assay (spheroid growth, 8 days), MOLM14.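 Further: spheroid size read as confluence by live-cell imaging, compounds added at a range of concentrations with 0.3% DMSO, DMSO-treated wells = 0%, highest reference dose = low control.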 It is filed as cell-based, human. The following applies: Homo sapiens, MOLM-14, […], MOLM14, 8 days; read-out: spheroid assay_OneTime MOLM14 IC50.
Another test deals with OCI-AML3 cells. As to the kind of experiment: Proliferation assay (spheroid growth, 8 days), OCI-AML3. It is filed as cell-based, human. The following applies: Homo sapiens, OCI-AML-3, […], OCI-AML3, 8 days. An outline of the steps: (§1)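 200 MOLM14 (MLL-AF9), 200 OCI-AML3 (NPM1c) or 300 KO-52 (MLL wildtype) cells were grown as spheroids in ultra-low attachment wells with compound, 0.3% DMSO, for 8 days at 37 °C. Confluence was imaged on day 8, normalized to DMSO and top-dose reference compound. IC50 came from a variable-slope fit constrained 0–100%.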

The subject of another test is KO-52 cells. As to the kind of experiment: Proliferation assay (spheroid growth, 8 days), KO-52 control cell line. The format is cell-based, human. Conditions: Homo sapiens, […], read-out: spheroid assay_OneTime KO-52 IC50. An outline of the steps: as §1
The test system of a further test is MEIS1 mRNA. As to the kind of experiment: MEIS1 mRNA expression assay (Quantigene Singleplex) in MOLM14 cells.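 Further: MEIS1 transcript levels read by probe hybridization and normalized to RPL28 mRNA, with IC50 fitted to fold changes across a rising compound concentration series.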 The following applies: Homo sapiens, MOLM-14, 48 h, 48 hours incubation. The format is cell-based, human.

Sequence of menin/MLL (terbium chelate-labeled menin, FITC-MBM1 peptide) (O00255 other isoform, or with tags, fused parts or gaps): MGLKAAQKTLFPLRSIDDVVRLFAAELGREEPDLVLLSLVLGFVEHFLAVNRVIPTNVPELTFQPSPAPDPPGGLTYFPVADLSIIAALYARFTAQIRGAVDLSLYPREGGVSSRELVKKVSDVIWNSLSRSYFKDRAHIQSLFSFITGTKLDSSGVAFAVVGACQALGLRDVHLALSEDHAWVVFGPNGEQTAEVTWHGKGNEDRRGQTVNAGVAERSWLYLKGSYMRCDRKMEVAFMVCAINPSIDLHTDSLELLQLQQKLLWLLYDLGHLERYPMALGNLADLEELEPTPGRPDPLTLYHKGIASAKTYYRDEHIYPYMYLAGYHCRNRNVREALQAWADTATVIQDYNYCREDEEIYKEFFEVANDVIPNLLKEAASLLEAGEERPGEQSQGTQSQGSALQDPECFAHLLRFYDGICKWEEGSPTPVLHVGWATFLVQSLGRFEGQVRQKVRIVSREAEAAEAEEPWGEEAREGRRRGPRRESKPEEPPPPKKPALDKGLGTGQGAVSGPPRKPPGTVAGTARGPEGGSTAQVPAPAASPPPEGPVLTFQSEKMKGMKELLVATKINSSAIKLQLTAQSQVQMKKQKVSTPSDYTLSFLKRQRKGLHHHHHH

One may read the IC50 as the midpoint of a concentration-inhibition curve. On to `CCN(C(=O)c1cc(F)ccc1Oc1nncnc1N1CCC2(C1)CN([C@H](CCCNCC(F)F)C(C)C)C2)C(C)C` [Compound 15, (R)-2-((5-(2-(6-((2,2-difluoroethyl)amino)-2-methylhexan-3-yl)-2,6-diazaspiro[3.4]octan-6-yl)-1,2,4-triazin-6-yl)oxy)-N-ethyl-5-fluoro-N-isopropylbenzamide], for which the IC50 was found to be 0.25 nM in test [1]; 100 nM in the test with MOLM14 cells; 460 nM with OCI-AML3 cells; 3700 nM in the test on KO-52 cells; 71 nM in the test with MEIS1 mRNA.

On to `CCN(C(=O)c1cc(F)ccc1Oc1nncnc1N1CCC2(C1)CN(C(CCN)C(C)C)C2)C(C)C` (stereo not drawn) [Compound 26, 2-((5-(2-(1-amino-4-methylpentan-3-yl)-2,6-diazaspiro[3.4]octan-6-yl)-1,2,4-triazin-6-yl)oxy)-N-ethyl-5-fluoro-N-isopropylbenzamide], for which the IC50 was 0.28 nM in test [1]; 270 nM in the test on MOLM14 cells; 1340 nM in the test on OCI-AML3 cells; more than 15000 nM with KO-52 cells; 490 nM in the test on MEIS1 mRNA.

On to `CCN(C(=O)c1cc(F)ccc1Oc1nncnc1N1CCC2(C1)CN(C(CCCNCC(C)(C)OC)C(C)C)C2)C(C)C` (stereo not drawn) [Compound 69, N-ethyl-5-fluoro-N-isopropyl-2-((5-(2-(6-((2-methoxy-2-methylpropyl)amino)-2-methylhexan-3-yl)-2,6-diazaspiro[3.4]octan-6-yl)-1,2,4-triazin-6-yl)oxy)benzamide], for which the IC50 is 0.099 nM in test [1]; 20 nM with MOLM14 cells; 87 nM in the test with OCI-AML3 cells; 7180 nM with KO-52 cells; 16 nM with MEIS1 mRNA.

As for `CC(C)C(CCCN(C)C)N1CC2(CCN(c3ccnnc3Oc3ccc(F)cc3C(=O)N(C(C)C)C(C)C)C2)C1` (stereo not drawn) [Compound 74, 2-((4-(2-(6-(dimethylamino)-2-methylhexan-3-yl)-2,6-diazaspiro[3.4]octan-6-yl)pyridazin-3-yl)oxy)-5-fluoro-N,N-diisopropylbenzamide], the IC50 came to 0.51 nM in test [1]; 140 nM in the test with MOLM14 cells; 1290 nM in the test with OCI-AML3 cells; 10600 nM with KO-52 cells; 260 nM in the test on MEIS1 mRNA.

For `CCN(C(=O)c1cc(F)ccc1Oc1nncnc1N1CCC2(C1)CN([C@H](CCCNCC(C)(C)OC)C(C)C)C2)C(C)C` [Compound 135, (R)-N-ethyl-5-fluoro-N-isopropyl-2-((5-(2-(6-((2-methoxy-2-methylpropyl)amino)-2-methylhexan-3-yl)-2,6-diazaspiro[3.4]octan-6-yl)-1,2,4-triazin-6-yl)oxy)benzamide fumarate], the half-maximal inhibitory concentration (IC50) in test [1] stood at 0.057 nM; in the test on MOLM14 cells it was 13 nM; in the test on OCI-AML3 cells it was 230 nM; with KO-52 cells, 9690 nM; with MEIS1 mRNA it was 16 nM.

Take `CCN(C(=O)c1cc(F)ccc1Oc1nncnc1N1CCC2(C1)CN([C@H](CCCN(C)CC(C)(C)OC)C(C)C)C2)C(C)C` [Compound 137, (R)-N-ethyl-5-fluoro-N-isopropyl-2-((5-(2-(6-((2-methoxy-2-methylpropyl)(methyl)amino)-2-methylhexan-3-yl)-2,6-diazaspiro[3.4]octan-6-yl)-1,2,4-triazin-6-yl)oxy)benzamide fumarate]: the IC50 was 0.18 nM in test [1]; 45 nM in the test on MOLM14 cells; 160 nM in the test on OCI-AML3 cells; 7290 nM in the test on KO-52 cells; 25 nM in the test on MEIS1 mRNA.

`CCN(C(=O)c1cc(F)ccc1Oc1nncnc1N1CCC2(C1)CN([C@H](CCCN(C)CC(C)(C)O)C(C)C)C2)C(C)C` [Compound 140, (R)-N-ethyl-5-fluoro-2-((5-(2-(6-((2-hydroxy-2-methylpropyl)(methyl)amino)-2-methylhexan-3-yl)-2,6-diazaspiro[3.4]octan-6-yl)-1,2,4-triazin-6-yl)oxy)-N-isopropylbenzamide fumarate]: the IC50 was found to be 0.093 nM in test [1]; 110 nM in the test on MOLM14 cells; 330 nM in the test with OCI-AML3 cells; 5750 nM with KO-52 cells; 28 nM in the test with MEIS1 mRNA.

On to `CCN(C(=O)c1cc(F)ccc1Oc1nncnc1N1CCC2(C1)CN([C@H](CCCN(C)CCCOC)C(C)C)C2)C(C)C` [Compound 142, (R)-N-ethyl-5-fluoro-N-isopropyl-2-((5-(2-(6-((3-methoxypropyl)(methyl)amino)-2-methylhexan-3-yl)-2,6-diazaspiro[3.4]octan-6-yl)-1,2,4-triazin-6-yl)oxy)benzamide fumarate], for which the IC50 was 0.071 nM in test [1]; 12 nM in the test with MOLM14 cells; 220 nM in the test on OCI-AML3 cells; more than 15000 nM in the test with KO-52 cells; 51 nM in the test with MEIS1 mRNA.

Take `CCN(C(=O)c1cc(F)ccc1Oc1nncnc1N1CCC2(C1)CN([C@H](CCCN(C)CC(OC)OC)C(C)C)C2)C(C)C` [Compound 150, (R)-2-((5-(2-(6-((2,2-dimethoxyethyl)(methyl)amino)-2-methylhexan-3-yl)-2,6-diazaspiro[3.4]octan-6-yl)-1,2,4-triazin-6-yl)oxy)-N-ethyl-5-fluoro-N-isopropylbenzamide fumarate]: the IC50 in test [1] is 0.26 nM; in the test on MOLM14 cells, 14 nM; in the test with OCI-AML3 cells it was 160 nM; in the test with KO-52 cells, 8700 nM; in the test on MEIS1 mRNA, 13 nM.

As to `CCN(C(=O)c1cc(F)ccc1Oc1nncnc1N1CCC2(C1)CN([C@H](CCCN(C)CCCC(=O)N(C)C)C(C)C)C2)C(C)C` [Compound 152, (R)-2-((5-(2-(6-((4-(dimethylamino)-4-oxobutyl)(methyl)amino)-2-methylhexan-3-yl)-2,6-diazaspiro[3.4]octan-6-yl)-1,2,4-triazin-6-yl)oxy)-N-ethyl-5-fluoro-N-isopropylbenzamide fumarate], the IC50 is 0.19 nM in test [1]; 37 nM with MOLM14 cells; 350 nM in the test on OCI-AML3 cells; more than 15000 nM in the test with KO-52 cells; 87 nM in the test on MEIS1 mRNA.

Take `CCN(C(=O)c1cc(F)ccc1Oc1nncnc1N1CCC2(C1)CN([C@H](CCCN(C)[C@H](C)COC)C(C)C)C2)C(C)C` [Compound 154, N-ethyl-5-fluoro-N-isopropyl-2-((5-(2-((R)-6-(((R)-1-methoxypropan-2-yl)(methyl)amino)-2-methylhexan-3-yl)-2,6-diazaspiro[3.4]octan-6-yl)-1,2,4-triazin-6-yl)oxy)benzamide fumarate]: the IC50 was 0.051 nM in test [1]; 22 nM with MOLM14 cells; 67 nM in the test on OCI-AML3 cells; more than 15000 nM in the test with KO-52 cells; 27 nM with MEIS1 mRNA.

As for `CCN(C(=O)c1cc(F)ccc1Oc1nncnc1N1CCC2(C1)CN([C@H](CCCN(C)[C@@H](C)COC)C(C)C)C2)C(C)C` [Compound 157, N-ethyl-5-fluoro-N-isopropyl-2-((5-(2-((R)-6-((S)-1-methoxypropan-2-yl)(methyl)amino)-2-methylhexan-3-yl)-2,6-diazaspiro[3.4]octan-6-yl)-1,2,4-triazin-6-yl)oxy)benzamide fumarate], the IC50 in test [1] stood at 0.12 nM; with MOLM14 cells, 21 nM; with OCI-AML3 cells it was 83 nM; in the test on KO-52 cells it was 13800 nM; with MEIS1 mRNA it was 22 nM.
